From patent US20020099050A1, “Drugs that enhance synaptic responses mediated by AMPA receptors” (priority 1993, published 2002)
Each block holds one molecule with its values, some of them ahead of it.

What was measured:
AMPA receptors [1] = tested on: T1, AMPA receptors; assay: field EPSPs in field CA1 of in vitro slices of rat hippocampus; type: cell-based; settings: for EC50: estimated from log dose/response curves, maximal response of 85% increase assumed where limited solubility prevented a maximum, read-out: EC50 (percent increase in field EPSP amplitude)
T1 construct: EC50 (percent increase in field EPSP amplitude); other: estimated from log dose/response curves; maximal response of 85; effect on field EPSP amplitude and duration; other: 1.5 mM, 15 minute infusion; enhancement of the area of the field EPSP; other: 100 μM; mean and S.D. of 4
Procedure: The physiological effects of invention compounds can be tested in vitro with slices of rat hippocampus as follows. Excitatory responses (field EPSPs) are measured in hippocampal slices which are maintained in a recording chamber continuously perfused with artificial cerebrospinal fluid (ACSF).
To conduct these tests, the hippocampus was removed from anesthetized, 2 month old Sprague-Dawley rats and in vitro slices (400 micrometers thick) were prepared and maintained in an interface chamber at 35° C. using conventional techniques [see, for example, Dunwiddie and Lynch, J. Physiol. Vol. 276: 353-367 (1978)]. The chamber was constantly perfused at 0.5 ml/min with ACSF containing (in mM): NaCl 124, KCl 3, KH2PO4 1.25, MgSO4 2.5, CaCl2 3.4, NaHCO3 26, glucose 10 and L-ascorbate 2. A bipolar nichrome stimulating electrode was positioned in the dendritic layer (stratum radiatum) of the hippocampal subfield CA1 close to the border of subfield CA3.
Current pulses (0.1 msec) through the stimulating electrode activate a population of the Schaffer-commissural (SC) fibers which arise from neurons in the subdivision CA3 and terminate in synapses on the dendrites of CA1 neurons. Activation of these synapses causes them to release the transmitter glutamate. Glutamate binds to the post-synaptic AMPA receptors which then transiently open an associated ion channel and permit a sodium current to enter the postsynaptic cell. This current results in a voltage in the extracellular space (the field excitatory post-synaptic potential or field “EPSP”) which is recorded by a high impedance recording electrode positioned in the middle of the stratum radiatum of CA1.
For the experiments summarized in FIG. 1, the intensity of the stimulation current was adjusted to produce half-maximal EPSPs (typically about 1.5-2.0 mV). Paired stimulation pulses were given every 40 sec with an interpulse interval of 200 msec (see below). The field EPSPs of the second response were digitized and analyzed to determine amplitude, half-width, and response area. If the responses were stable for 15-30 minutes (baseline), test compounds were added to the perfusion lines for a period of about 15 minutes. The perfusion was then changed back to regular ACSF.
Paired-pulse stimulation was used since stimulation of the SC fibers, in part, activates interneurons which generate an inhibitory postsynaptic potential (IPSP) in the pyramidal cells of CA1. This feed forward IPSP typically sets in after the EPSP reaches its peak. It accelerates the repolarization and shortens the decay phase of the EPSP, and thus could partially mask the effects of the test compounds. One of the relevant features of the feed-forward IPSP is that it can not be reactivated for several hundred milliseconds following a stimulation pulse. This phenomenon can be employed to advantage to eliminate IPSP by delivering paired pulses separated by 200 milliseconds and using the second (“primed”) response for data analysis.
The variables set forth in the table refer to the following generic structure: […]

AMPA receptors [2] = assay: long-term potentiation (theta burst stimulation) in CA1 field of hippocampal slices; type: cell-based, rat; settings: 1.5 mM infused 15 minutes prior to theta burst stimulation; five experiments; p<0.02
Procedure: Long-term potentiation (LTP; a stable increase in the EPSP size of single responses after brief periods of high frequency stimulation) was elicited in the CA1 field of hippocampal slices in the absence (see FIG. 3, stippled bars, N=6) and in the presence of 1.5 mM of Invention Compound I (see FIG. 3, striped bars, N=5). In the latter case, the amount of potentiation was determined after washing out the test compound and comparing the response size with that before test compound infusion. Data presented in FIG. 3 show the percent increase in the EPSP amplitude (mean and S.D.) at 40, 60, and 90 minutes after LTP induction.
For these studies, field EPSPs in slices of hippocampus were elicited by single stimulation pulses and recorded by extracellular electrodes as described in Example II. After collecting responses every 40 seconds for 20-30 minutes to establish a baseline, LTP was induced with ten short bursts of pulses delivered to the CA3 axons; each burst consisted of four pulses separated by 10 milliseconds; the interval between the bursts was 200 milliseconds. This pattern of axon stimulation mimics a discharge rhythm observed in the hippocampus of animals engaged in learning and is referred to as the “theta burst stimulation paradigm” [see, for example, Larson and Lynch in Science Vol. 232: 985-988 (1986)]. […]

AMPA receptor [3] = type: in vivo, rat; settings: 120-180 mg/kg i.p.
Procedure: Stimulating and recording electrodes were placed in the hippocampus of anesthetized rats so as to activate and monitor the same synaptic responses as in the slice studies described in Example XV. […] The time constant for the decay of the EPSP is a measure for the duration of the response.
In these experiments, male Sprague-Dawley rats were anesthetized with urethane (1.7 g/kg) and body temperature was maintained at 37° C. with the use of a heat lamp. A stimulation electrode (two twisted stainless steel wires, 150 μm diameter, insulated with teflon) was placed stereotaxically in the trajectory of the Schaffer collateral (SC) pathway from CA3 to CA1 of the hippocampus (coordinates relative to Bregma: 3.5 mm P., 3.5 mm L., and 3.0-3.7 mm V). […]
Negative field potentials reflecting dendritic EPSPs evoked by SC stimulation (0.1 ms pulses, 10-100 μA) with paired pulses (inter-pulse interval of 200 msec; see methodology described in Example XV) were amplified 500 times and digitized by computer at 20 sec intervals throughout each experiment. […] Decay time constants were determined by single exponential fits to the decay phase of the synaptic response and expressed as a percent of the value obtained during the pre-injection control period.

AMPA receptor [4] = settings: cited from earlier work
[5] = rat, in vivo, ip
Excerpt: To test the ability of invention compounds to pass the blood-brain barrier, Invention Compound II was labelled with carbon-11.
Radiolabelled Invention Compound II (see the table above) is synthesized by the following scheme (wherein the numbers in parenthesis refer to the quantity of reagent used, in millimoles): [drawing 31]
wherein Ar is aryl (such as methylenedioxybenzene), Im is imidazole (thus, ImHCl is imidazole hydrochloride), and R is an alkyl or alkylene radical (so that R2NH is, for example, piperidine). ^11C-labelled CO2 is produced by cyclotron irradiation and subsequently used in the above-described synthetic scheme. The time to complete the synthesis is about […] (2 times the half-life of carbon-11). After purification of [^11C]II on C18 Sep Pak, 260 μCi was diluted with 20 mg of nonradioactive II as carrier in a 1-ml solution of 23% propylene glycol and 10% ethanol in physiologically-buffered saline in order to simulate the dosage of 100 mg/Kg that was used in behavioral studies. The final 1 ml of solution was administered to a 200 g rat under halothane anesthesia (1.4-1.7% in oxygen) by intraperitoneal (i.p.) injection.
Biodistribution of the radiotracer in the body of the rat was monitored by a positron camera (Scanditronix PC2048-15B) and the time-activity curves were constructed using a Vax 3500 (Digital Equipment Corporation) and shown in FIG. 5.

SMILES: O=C(c1ccc2nc[nH]c2c1)N1CCCCC1 [Compound XII, 1-(1,3-benzimidazol-5-ylcarbonyl)-piperidine]
EC50 (AMPA receptors [1]): 5000 µM

SMILES: COc1ccc(C(=O)NCCCC(=O)O)cc1 [anisoyl-GABA]
aniracetam-like effects (AMPA receptor [4]): no aniracetam-like effects

SMILES: O=C(c1cccc2c1OCCO2)N1CC=CC1 [Compound VIII, 1-(1,4-benzodioxan-5-ylcarbonyl)-3-pyrroline]
EC50 (AMPA receptors [1]): 3000 µM

SMILES: O=C(c1ccc2c(c1)OCO2)N1CCCCC1 [Compound II, 1-(1,3-benzodioxol-5-ylcarbonyl)-piperidine]
brain distribution relative to head excluding the cranial cavity [5]: approximately equal
brain distribution relative to heart [5]: two-thirds
brain distribution relative to liver [5]: approximately one-quarter
passage of the blood-brain barrier [5]: passes freely through the blood-brain barrier
time to plateau of brain uptake [5]: 5 to 10 min

SMILES: COc1ccc(C(=O)N2CC[C@@H](O)C2=O)cc1 [AHP, (R)-1-p-anisoyl-3-hydroxy-2-pyrrolidinone]
facilitation of AMPA receptor mediated responses in slices (AMPA receptor [4]; nootropics tested in slices): facilitate AMPA receptor mediated responses

SMILES: O=C(c1ccc2ncoc2c1)N1CC=CCC1 [Compound IX, 1-(1,3-benzoxazol-6-ylcarbonyl)-1,2,3,6-tetrahydodyridine]
EC50 (AMPA receptors [1]): 4000 µM

Continued, in another order:

fold greater increase in the response area than aniracetam (AMPA receptors [1]; 750 μM): nine-fold
effect on synaptic response compared with aniracetam (AMPA receptors [1]; 750 μM versus aniracetam 1500 μM, 15 minute infusion): much larger effect
reversibility of effect upon washout (AMPA receptors [1]; after 15 minute infusion): fully reversible upon washout
degree of stable long-term potentiation versus stimulation in absence of drug (AMPA receptors [2]): nearly twice as large
SMILES: O=C(c1ccc2c(c1)OCCO2)N1CC=CCC1 [Compound I]
times greater effect on response area than aniracetam at the same concentrations (AMPA receptors [1]; dosages in the range of 750 μM to 1.5 μM): 6-9 times
time within which the effect reversed after injection (AMPA receptor [3]): 60 to 120 min
effect on duration (decay time constant) of synaptic response (AMPA receptor [3]; anesthetized rats, n=8): rapid increase in the duration of the synaptic response

EC50 (AMPA receptors [1]): 3000 µM
SMILES: O=C(c1ccc2ocnc2c1)N1CC=CCC1 [Compound XI, 1-(1,3-benzoxazol-5-ylcarbonyl)-1,2,3,6-tetrahydropyridine]

EC50 (AMPA receptors [1]): 1300 µM
SMILES: O=C(c1ccc2ncoc2c1)N1CCCCC1 [Compound X, 1-(1,3-benzoxazol-6-ylcarbonyl)-piperidine]
